Experimental data from ChEMBL document CHEMBL4837240 (J Med Chem, 2021).
Activity calls are given as the source filed them. The calls are words filed in the database; no cut-off is given here.

Experiments:
MDA-MB-436 [1] = assay: Induction of apoptosis in human MDA-MB-436 cells assessed as apoptotic cells at 2.5 uM incubated for 48 hrs by flow cytometry; format: functional
Misshapen-like kinase 1 = Misshapen-like kinase 1 (Homo sapiens, UniProt Q8N4C8); assay: Inhibition of human MINK assessed as residual kinase activity at 1 uM relative to control
Chain of Misshapen-like kinase 1 (Q8N4C8 whole entry, looked up): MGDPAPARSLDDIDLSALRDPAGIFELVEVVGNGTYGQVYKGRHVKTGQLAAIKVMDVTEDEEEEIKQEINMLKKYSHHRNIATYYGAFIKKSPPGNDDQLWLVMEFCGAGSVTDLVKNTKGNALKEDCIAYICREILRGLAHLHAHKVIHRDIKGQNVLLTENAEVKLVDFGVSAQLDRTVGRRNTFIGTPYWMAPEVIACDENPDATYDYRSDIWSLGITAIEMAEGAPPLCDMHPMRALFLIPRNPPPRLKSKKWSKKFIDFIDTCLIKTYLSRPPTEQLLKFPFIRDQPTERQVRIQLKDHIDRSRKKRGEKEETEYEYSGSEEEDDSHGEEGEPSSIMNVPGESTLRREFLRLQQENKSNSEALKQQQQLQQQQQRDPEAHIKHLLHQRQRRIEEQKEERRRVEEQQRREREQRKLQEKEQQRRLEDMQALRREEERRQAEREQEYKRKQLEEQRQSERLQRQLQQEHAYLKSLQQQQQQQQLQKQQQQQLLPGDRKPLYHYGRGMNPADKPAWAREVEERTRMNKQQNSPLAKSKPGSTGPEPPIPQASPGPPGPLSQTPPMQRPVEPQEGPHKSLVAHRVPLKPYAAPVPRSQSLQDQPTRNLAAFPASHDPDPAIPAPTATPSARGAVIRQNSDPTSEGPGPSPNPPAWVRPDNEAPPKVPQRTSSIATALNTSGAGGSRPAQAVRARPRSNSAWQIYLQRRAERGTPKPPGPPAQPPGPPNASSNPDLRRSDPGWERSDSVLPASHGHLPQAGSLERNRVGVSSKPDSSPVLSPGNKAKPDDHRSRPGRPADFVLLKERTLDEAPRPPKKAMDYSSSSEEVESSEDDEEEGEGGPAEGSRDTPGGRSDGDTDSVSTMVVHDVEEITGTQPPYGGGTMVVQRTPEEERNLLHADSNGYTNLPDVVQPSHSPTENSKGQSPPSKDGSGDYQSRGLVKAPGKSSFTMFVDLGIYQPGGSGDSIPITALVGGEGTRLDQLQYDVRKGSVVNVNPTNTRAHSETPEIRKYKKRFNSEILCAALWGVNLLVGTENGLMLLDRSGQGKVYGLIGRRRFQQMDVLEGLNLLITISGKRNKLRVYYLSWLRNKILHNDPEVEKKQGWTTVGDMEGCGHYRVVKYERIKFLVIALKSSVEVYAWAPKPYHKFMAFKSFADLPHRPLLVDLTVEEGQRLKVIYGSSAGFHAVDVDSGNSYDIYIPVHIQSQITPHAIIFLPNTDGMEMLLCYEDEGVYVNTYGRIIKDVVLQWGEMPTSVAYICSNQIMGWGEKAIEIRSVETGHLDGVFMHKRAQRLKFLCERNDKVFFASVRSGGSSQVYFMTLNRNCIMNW

Mus musculus = assay: Decrease in p-VEGFR3 level in BALB/c mouse xenografted with MDA-MB-231 cells in tumor tissue at 25 mg/kg, po by immunohistochemistry analysis; format: functional, organism-based
[2] = Toxicity in po dosed BALB/c mouse xenografted with MDA-MB-231 cells assessed as maximum tolerated dose; format: organism-based; conditions: in vivo
MDA-MB-436 [3] = assay: Induction of apoptosis in human MDA-MB-436 cells assessed as upregulation of caspase 3 up to 10 uM incubated for 24 hrs by Western blotting analysis; format: functional, cell-based; conditions: dose microM <=10, time 24.0 hrs
[4] = biological target: T1, Vascular endothelial growth factor receptor 1 (Mus musculus) (UniProt P35969); assay: In vivo inhibition of VEGFR1 phosphorylation in BALB/c mouse xenografted with MDA-MB-231 cells at 25 mg/kg, po by immunohistochemistry analysis; format: functional, organism-based
T1 sequence (whole entry): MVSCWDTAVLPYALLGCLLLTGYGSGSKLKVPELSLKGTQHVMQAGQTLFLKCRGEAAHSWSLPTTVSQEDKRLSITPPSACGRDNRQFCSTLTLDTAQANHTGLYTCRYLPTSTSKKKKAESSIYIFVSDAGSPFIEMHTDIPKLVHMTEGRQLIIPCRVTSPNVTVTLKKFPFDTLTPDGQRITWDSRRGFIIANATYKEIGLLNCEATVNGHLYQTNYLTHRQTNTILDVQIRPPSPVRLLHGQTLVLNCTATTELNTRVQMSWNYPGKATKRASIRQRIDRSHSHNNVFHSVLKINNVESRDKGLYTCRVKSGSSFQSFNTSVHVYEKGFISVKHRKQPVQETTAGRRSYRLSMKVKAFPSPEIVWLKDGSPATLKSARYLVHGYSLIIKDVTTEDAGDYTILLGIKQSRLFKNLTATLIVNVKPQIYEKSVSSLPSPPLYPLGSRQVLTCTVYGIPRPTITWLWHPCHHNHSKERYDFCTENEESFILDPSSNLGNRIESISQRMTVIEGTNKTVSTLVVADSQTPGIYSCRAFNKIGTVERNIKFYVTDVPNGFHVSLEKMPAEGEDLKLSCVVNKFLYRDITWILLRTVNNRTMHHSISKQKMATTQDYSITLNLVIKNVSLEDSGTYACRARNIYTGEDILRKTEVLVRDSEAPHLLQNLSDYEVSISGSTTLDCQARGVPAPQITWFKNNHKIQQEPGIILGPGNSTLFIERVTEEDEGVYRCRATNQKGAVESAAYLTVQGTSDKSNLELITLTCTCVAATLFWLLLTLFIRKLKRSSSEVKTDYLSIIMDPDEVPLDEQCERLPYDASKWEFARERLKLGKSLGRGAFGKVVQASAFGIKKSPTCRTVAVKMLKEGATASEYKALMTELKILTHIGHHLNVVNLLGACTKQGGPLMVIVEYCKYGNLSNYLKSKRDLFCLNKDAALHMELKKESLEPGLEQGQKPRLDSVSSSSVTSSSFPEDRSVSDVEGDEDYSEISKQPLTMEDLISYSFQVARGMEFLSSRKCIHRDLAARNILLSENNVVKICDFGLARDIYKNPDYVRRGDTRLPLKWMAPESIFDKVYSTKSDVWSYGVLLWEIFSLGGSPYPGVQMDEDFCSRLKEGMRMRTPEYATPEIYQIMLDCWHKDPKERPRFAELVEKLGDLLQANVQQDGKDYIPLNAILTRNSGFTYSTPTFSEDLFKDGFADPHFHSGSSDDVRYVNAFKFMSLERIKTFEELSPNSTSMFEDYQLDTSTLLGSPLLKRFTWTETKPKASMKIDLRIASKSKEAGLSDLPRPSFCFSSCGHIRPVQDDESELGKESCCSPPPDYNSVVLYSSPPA

[5] = Antiproliferative activity against VEGF-C-induced human dermal lymphatic endothelial cells assessed as cell viability incubated for 48 hrs by CCK-8 assay; format: functional, tissue-based; conditions: HDLEC
MDA-MB-231 [6] = assay: Induction of apoptosis in human MDA-MB-231 cells assessed as upregulation of Bax expression up to 10 uM incubated for 24 hrs by Western blotting analysis; format: functional, cell-based; conditions: dose microM <=10, time 24.0 hrs
[7] = biological target: Vascular endothelial growth factor receptor 3 (Homo sapiens, UniProt P35916); assay: Inhibition of VEGFR3 in human MDA-MB-231 cells assessed as inhibition of ERK1/2 phosphorylation at 2.5 uM incubated for 24 hrs by Western blot analysis; format: cell-based
Chain of Vascular endothelial growth factor receptor 3 (P35916 whole entry): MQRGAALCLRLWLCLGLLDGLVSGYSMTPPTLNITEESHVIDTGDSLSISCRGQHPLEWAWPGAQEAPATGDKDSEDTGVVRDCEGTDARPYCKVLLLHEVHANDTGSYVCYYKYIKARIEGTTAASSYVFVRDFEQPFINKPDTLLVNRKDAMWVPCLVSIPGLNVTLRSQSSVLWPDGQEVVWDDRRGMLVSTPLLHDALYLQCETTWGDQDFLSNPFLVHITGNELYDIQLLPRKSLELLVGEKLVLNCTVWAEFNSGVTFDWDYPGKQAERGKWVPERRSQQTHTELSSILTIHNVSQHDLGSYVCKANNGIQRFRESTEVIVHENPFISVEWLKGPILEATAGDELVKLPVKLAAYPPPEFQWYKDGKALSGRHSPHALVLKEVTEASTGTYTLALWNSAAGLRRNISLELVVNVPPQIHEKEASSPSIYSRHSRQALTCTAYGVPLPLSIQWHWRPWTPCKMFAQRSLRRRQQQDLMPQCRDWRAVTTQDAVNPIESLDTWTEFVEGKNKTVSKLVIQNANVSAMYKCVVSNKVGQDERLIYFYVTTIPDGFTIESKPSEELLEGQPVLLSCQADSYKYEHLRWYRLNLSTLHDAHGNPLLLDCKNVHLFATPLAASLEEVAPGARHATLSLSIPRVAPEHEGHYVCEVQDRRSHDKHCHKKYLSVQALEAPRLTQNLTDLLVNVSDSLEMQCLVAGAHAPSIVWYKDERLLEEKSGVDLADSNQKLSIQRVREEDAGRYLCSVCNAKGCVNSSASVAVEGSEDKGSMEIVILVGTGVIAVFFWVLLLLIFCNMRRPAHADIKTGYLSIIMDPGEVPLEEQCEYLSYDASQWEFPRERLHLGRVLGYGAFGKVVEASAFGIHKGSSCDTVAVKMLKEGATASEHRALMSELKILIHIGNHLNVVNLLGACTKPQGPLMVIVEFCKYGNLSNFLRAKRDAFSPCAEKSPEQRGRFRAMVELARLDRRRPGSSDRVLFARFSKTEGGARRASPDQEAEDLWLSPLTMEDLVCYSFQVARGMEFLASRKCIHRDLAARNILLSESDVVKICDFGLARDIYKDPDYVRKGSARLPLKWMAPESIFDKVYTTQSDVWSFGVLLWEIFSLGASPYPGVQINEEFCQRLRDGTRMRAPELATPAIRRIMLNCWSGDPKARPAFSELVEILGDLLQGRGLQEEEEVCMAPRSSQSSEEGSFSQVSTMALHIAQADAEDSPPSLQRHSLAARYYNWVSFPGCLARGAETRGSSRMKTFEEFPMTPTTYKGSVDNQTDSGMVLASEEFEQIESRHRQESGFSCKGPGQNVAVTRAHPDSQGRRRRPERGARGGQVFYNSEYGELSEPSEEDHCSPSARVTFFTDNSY

HDLEC = assay: Inhibition of cell migration in VEGF-C-induced human dermal lymphatic endothelial cells assessed as cell migration at 100 nM incubated for 24 hrs by inverted microscopy based by scratch wound healing assay; format: functional, tissue-based
[8] = AUC (0 to infinity) in Sprague-Dawley rat at 10 mg/kg, po by LC-MS analysis; format: ADME, organism-based; set-up: route oral, time infinity, dose 10 mg/kg; conditions: in vivo
[9] = biological target: Vascular endothelial growth factor receptor 1 (Homo sapiens, UniProt P17948); assay: Inhibition of human FLT1/VEGFR1
Chain of Vascular endothelial growth factor receptor 1 (P17948 whole entry): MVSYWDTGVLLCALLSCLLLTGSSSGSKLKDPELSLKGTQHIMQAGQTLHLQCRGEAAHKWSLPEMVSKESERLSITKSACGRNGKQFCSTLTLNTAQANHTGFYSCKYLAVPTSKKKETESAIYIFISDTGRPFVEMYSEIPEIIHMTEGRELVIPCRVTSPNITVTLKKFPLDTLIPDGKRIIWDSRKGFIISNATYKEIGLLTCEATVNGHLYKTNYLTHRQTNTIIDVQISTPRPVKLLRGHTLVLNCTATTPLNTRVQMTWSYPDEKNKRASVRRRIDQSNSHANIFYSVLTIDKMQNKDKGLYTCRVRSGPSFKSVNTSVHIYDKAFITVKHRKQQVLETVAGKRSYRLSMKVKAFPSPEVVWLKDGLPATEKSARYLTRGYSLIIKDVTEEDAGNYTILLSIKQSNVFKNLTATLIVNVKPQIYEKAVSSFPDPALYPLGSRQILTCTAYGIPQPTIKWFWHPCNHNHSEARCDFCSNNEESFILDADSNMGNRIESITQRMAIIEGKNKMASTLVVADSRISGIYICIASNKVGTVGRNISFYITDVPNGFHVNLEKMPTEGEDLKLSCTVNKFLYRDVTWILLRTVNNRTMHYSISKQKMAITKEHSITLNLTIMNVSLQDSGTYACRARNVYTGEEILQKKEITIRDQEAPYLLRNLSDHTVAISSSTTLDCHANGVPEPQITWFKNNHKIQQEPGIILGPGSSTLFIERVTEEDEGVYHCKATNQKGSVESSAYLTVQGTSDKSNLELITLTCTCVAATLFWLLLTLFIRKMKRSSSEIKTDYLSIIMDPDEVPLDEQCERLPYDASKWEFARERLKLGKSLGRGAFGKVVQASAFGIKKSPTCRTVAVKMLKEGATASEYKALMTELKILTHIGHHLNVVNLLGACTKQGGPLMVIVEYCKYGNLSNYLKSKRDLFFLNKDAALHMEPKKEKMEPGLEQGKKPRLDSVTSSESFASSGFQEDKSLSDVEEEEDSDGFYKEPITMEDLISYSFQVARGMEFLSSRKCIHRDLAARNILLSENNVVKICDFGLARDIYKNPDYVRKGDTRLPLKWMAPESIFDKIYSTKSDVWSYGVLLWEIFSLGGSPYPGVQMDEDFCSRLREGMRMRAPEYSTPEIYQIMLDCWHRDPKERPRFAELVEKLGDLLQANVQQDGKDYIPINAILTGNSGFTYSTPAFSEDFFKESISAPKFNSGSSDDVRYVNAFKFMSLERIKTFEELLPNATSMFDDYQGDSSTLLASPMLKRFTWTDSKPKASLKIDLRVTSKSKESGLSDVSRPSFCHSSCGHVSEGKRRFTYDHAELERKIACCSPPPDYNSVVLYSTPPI

[10] = Toxicity in BALB/c mouse xenografted with MDA-MB-231 cells assessed as AST level in blood at 300 mg/kg, po; format: organism-based; conditions: in vivo
MDA-MB-231 [11] = assay: Inhibition of colony formation in human MDA-MB-231 cells at 2.5 uM incubated for 24 hrs by clonogenic assay; format: functional
[12] = Toxicity in BALB/c mouse xenografted with MDA-MB-231 cells assessed as effect on body weight at 50 mg/kg, po; format: organism-based; conditions: in vivo
[13] = biological target: Maternal embryonic leucine zipper kinase (Homo sapiens, UniProt Q14680); assay: Inhibition of human MELK
Chain of Maternal embryonic leucine zipper kinase (Q14680 whole entry): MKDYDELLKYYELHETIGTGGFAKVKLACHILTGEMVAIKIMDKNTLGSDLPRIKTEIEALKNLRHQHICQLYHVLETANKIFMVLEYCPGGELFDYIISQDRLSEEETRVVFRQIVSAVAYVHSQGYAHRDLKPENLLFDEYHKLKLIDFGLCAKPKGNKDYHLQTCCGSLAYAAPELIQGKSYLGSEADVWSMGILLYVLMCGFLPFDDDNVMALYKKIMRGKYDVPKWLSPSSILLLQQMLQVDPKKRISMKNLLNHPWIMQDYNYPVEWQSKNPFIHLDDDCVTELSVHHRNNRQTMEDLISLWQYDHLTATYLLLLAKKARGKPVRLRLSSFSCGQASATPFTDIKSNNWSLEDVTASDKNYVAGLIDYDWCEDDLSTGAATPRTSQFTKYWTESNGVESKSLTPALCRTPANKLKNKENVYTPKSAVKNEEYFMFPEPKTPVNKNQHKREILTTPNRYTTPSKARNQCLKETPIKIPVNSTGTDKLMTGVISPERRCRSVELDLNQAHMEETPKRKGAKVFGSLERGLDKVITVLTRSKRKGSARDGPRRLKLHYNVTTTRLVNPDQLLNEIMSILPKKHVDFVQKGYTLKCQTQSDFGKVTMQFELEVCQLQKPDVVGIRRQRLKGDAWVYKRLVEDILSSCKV

[14] = Clearance in Sprague-Dawley rat at 1 mg/kg, iv by LC-MS analysis; format: ADME, organism-based; conditions: in vivo
[15] = biological target: Vascular endothelial growth factor receptor 3 (Mus musculus) (UniProt P35917); assay: In vivo inhibition of VEGFR3 phosphorylation in BALB/c mouse xenografted with MDA-MB-231 cells at 25 mg/kg, po by immunohistochemistry analysis; format: functional, organism-based

CN1CCN(c2ccc(-c3cc4c(N5CCN(C(=O)Nc6ccc(Cl)c(C(F)(F)F)c6)CC5)ncnc4s3)cc2)CC1
Activity (MDA-MB-436 [1]): 30.5% | Activity (Misshapen-like kinase 1): 5% | Activity (Mus musculus): Active | MTD [2]: 300 mg/kg | Activity (MDA-MB-436 [3]): Active | Activity [4]: inactive | IC50 [5]: 250 nM | Activity (MDA-MB-231 [6]): Active | inhibition [7]: Active | Activity (HDLEC): Active | AUC(0-inf) [8]: 12300 ng·h/mL | IC50 [9]: > 10000 nM | Activity [10]: Non-Toxic | inhibition at 2.5 µM (MDA-MB-231 [11]): 100% | Activity [12]: Non-Toxic | IC50 [13]: 700 nM | clearance [14]: 4.8 mL/min/kg | Activity [15]: Active
